The source of these data is paper PMC9656702, “Unveiling a New Selenocyanate as a Multitarget Candidate with Anticancer, Antileishmanial and Antibacterial Potential” (Molecules, 2022).

Test [1] deals with Leishmania major promastigotes. Briefly: Parasite viability MTT assay, L. major promastigotes. The format is cell-based. As to conditions: 48 h. On the procedure:
(§1) The cytotoxic activities of all the derivatives against Leishmania major and Leishmania infantum promastigotes were studied by the MTT assay after exposing the parasites to five different concentrations of each compound for 48 h. Miltefosine and paromomycin, two currently available drugs for the treatment of leishmaniasis, were used as positive controls.
(§2) L. major (clone VI, MHOM/IL/80/Friendlin) and L. infantum (BCN-150) promastigotes were grown in continuous stirred M199 1X medium (Sigma, St Louis, MO, USA) at 26 °C supplemented with 25 mM HEPES (pH 7.2), 10% heat-inactivated FBS (Gibco, Gaithersburg, MD, USA), 0.1 mM adenine, 0.0005% (w/v) hemin, 0.0001% (w/v) biotin, 100 UI/mL penicillin and […] streptomycin (Gibco, Gaithersburg, MD, USA). Media were changed before each experiment to achieve exponential growth.
(§3) The antileishmanial activity was assessed by the MTT assay as previously described. Briefly, 3 × 10^6 promastigotes of both Leishmania strains were placed into a 96-well plate with supplemented M199 1X medium during their logarithmic growth phase. The parasites were treated with five increasing concentrations of the compounds ranging between 0.1 and 1000 µM at 26 °C for 48 h. At the termination point, 20 µL of MTT (5 mg/mL) was added and further incubated for 4 h. The resultant formazan crystals formed were dissolved in 80 µL of DMSO and the absorbance was measured at 550 nm on a microplate reader. IC50 values were calculated using OriginPro 8.5.1. software by nonlinear curve fitting. Miltefosine and paromomycin were used as reference drugs. Data were obtained from at least three independent experiments performed in triplicates.
A general note: Formazan colour is commonly taken as a measure of viable cells.

The subject of test [2] is S. aureus. Briefly: MIC and MBC assay, S. aureus. The format is cell-based, Staphylococcus aureus. Particulars: Gram-positive; for MBC / MIC: Staphylococcus aureus; for MIC / MIC S. aureus: 24 h at 37 °C. On the procedure: (§4) The minimum inhibitory concentration (MIC) and the minimum bactericidal concentration (MBC) values of the selenocompounds were determined in a panel of six bacterial strains as a first approach to assess their antibacterial activity. Thus, the synthesized derivatives were tested against the Gram-negative bacteria Escherichia coli (E. coli), Klebsiella pneumoniae (K. pneumoniae) and Citrobacter freundii (C. freundii); and the Gram-positive bacteria Staphylococcus aureus (S. aureus), Streptococcus faecalis (S. faecalis), and Staphylococcus epidermidis (S. epidermidis). […]
(§5) All the selenocompounds were screened for their in vitro inhibitory activity against three Gram-negative (E. coli, K. pneumoniae and C. freundii) and three Gram-positive (S. aureus, S. faecalis and S. epidermidis) bacteria. Bacterial strains were kindly provided by the Department of Microbiology and Parasitology of the University of Navarra. The bacterial cells were grown in tryptic soy agar (TSA) plates and maintained at 4 °C.
(§6) The compounds were firstly dissolved in DMSO and serially diluted in a 96-well plate in tryptic soy broth (TSB) with eleven concentrations ranging from 400 µg/mL to 0.4 µg/mL with a final volume of 100 µL. Subsequently, 100 µL of a diluted suspension of bacterial cells with an optical density of 0.125 measured at 600 nm in TSB (inoculum of approximately 10^5 CFU/mL) was added to each well and incubated at 37 °C for 24 h. After the incubation period, each well was analyzed for the presence or absence of visual growth of bacterial cells. The lowest concentration of the test compound at which no visible growth occurred was determined as the MIC values. After incubation, 10 µL of the bacterial suspension from each well that presented antibacterial activity was added to divided TSA plates and incubated at 37 °C overnight.

Test [3] deals with MDA-MB-231. Briefly: Antiproliferative MTT assay, MDA-MB-231 breast cancer cells. Type of test: cell-based, human. As to the method: (§7) The antiproliferative activities of the cinnamyl and benzodioxyl derivatives were assessed against six human cell lines of three different types of cancer (colon, lung, and breast) using the 3-(4,5-dimethylthiazol-2-yl)-2,5-diphenyltetrazolium bromide (MTT) assay at seven concentrations for 48 h. The results are expressed as the IC50 values and are outlined in Table 1.
(§8) The cell lines were obtained from the American Type Culture Collection (ATCC). All the cancer cell lines (HT-29, HCT-116, H1299, HTB-54, MDA-MB-231 and MCF-7) and the nontumorigenic cells (184B5) were maintained in RPMI 1640 medium (Gibco), supplemented with 10% fetal bovine serum (FBS; Gibco) and 1% antibiotics (10.00 units/mL penicillin and 10.00 mg/mL streptomycin; Gibco). Cells were preserved in tissue culture flasks at 37 °C and 5% CO2. Culture medium was replaced every three days.
(§9) The cytotoxic effect of each compound was initially tested at seven different concentrations ranging between 0.5 and 100 µM in the cell lines mentioned above. The cells were seeded (1 × 10^4 cells per well) in 96-well plates and incubated at 37 °C and 5% CO2 for 24 h. After attachment, cells were treated with either dimethyl sulfoxide (DMSO) or increasing concentrations of the corresponding selenocompound for 48 h. The effect of the compounds on cell viability was determined by the MTT assay. In brief, 20 µL of MTT (5 mg/mL) was added to each well 2.5 h prior to experiment termination. At the end of the incubation, the medium was removed, and the formazan crystals were dissolved in 50 µL of DMSO. Absorbance was measured at 550 nm on a microplate reader. IC50 values were calculated using OriginPro 8.5.1. software by nonlinear curve fitting. Selectivity indexes were calculated as the ratio of the IC50 values determined for the nonmalignant and the tumoral cells in the breast cell lines (IC50 (184B5)/IC50 (MDA-MB-231) and IC50 (184B5)/IC50 (MCF-7)). Data were obtained from at least three independent experiments performed in triplicates.

Test [4] deals with MCF-7. The test can be described thus: Antiproliferative MTT assay, MCF-7 breast cancer cells. The format is cell-based, human. On the procedure: as §7, §8, §9
The subject of test [5] is S. faecalis. The test can be described thus: MIC and MBC assay, S. faecalis. Type of test: cell-based, Streptococcus faecalis. As to conditions: for MIC / MBC: Enterococcus faecalis; for MIC: read-out: MIC S. faecalis; for MBC: read-out: MBC S. faecalis. As to the method:
as §4, §5, §6

Test [6] relates to Leishmania infantum promastigotes. The test can be described thus: Parasite viability MTT assay, L. infantum promastigotes. The format is cell-based. Particulars: 48 h. As to the method: as §1, §2, §3
[7] abbreviates: Leishmania major, promastigotes, MTT assay, mean ± SD, read-out: IC50 Leishmania major.
Where [8] appears, read: promastigotes, MTT assay, mean ± SD, read-out: IC50 Leishmania major.
Setting [9] is: Homo sapiens, MDA-MB-231, MTT assay, 48 h, mean ± SD, read-out: IC50 MDA-MB-231.
Where [10] appears, read: Homo sapiens, MCF7, MTT assay, 48 h, mean ± SD, read-out: IC50 MCF-7.
The mark [11] stands for this setting: Leishmania infantum, promastigotes, MTT assay, mean ± SD, read-out: IC50 Leishmania infantum.
The mark [12] stands for this setting: promastigotes, MTT assay, mean ± SD, read-out: IC50 Leishmania infantum.
The mark [13] stands for this setting: MTT assay, 48 h, mean ± SD, read-out: IC50 MDA-MB-231.
The mark [14] stands for this setting: MTT assay, 48 h, mean ± SD, read-out: IC50 MCF-7.

SMILES strings stand for the structures. Converted amounts (≈) assume the structure as drawn. Read-outs that look alike come from different tables or passages of the source.

Broadly, the IC50 is the midpoint of a concentration-inhibition curve. The term MBC denotes the smallest concentration meeting the test's criterion for killing. The MIC is the smallest concentration in the dilution series that meets the test's criterion for growth inhibition. Turning to `N#C[Se]C/C=C/c1ccccc1` [Compound 1a, (E)-(3-selenocyanatoprop-1-en-1-yl)benzene], the IC50 in test [1] (Leishmania major, read-out: IC50 Leishmania major, promastigotes, MTT assay, 48 h, mean ± SD) is < 5 µM; in test [1] (read-out: IC50 Leishmania major, promastigotes, MTT assay, mean ± SD) it was 4.6 ± 1.7 µM; in test [3] (Homo sapiens, MDA-MB-231, 48 h, read-out: IC50 MDA-MB-231, MTT assay, 48 h, mean ± SD), > 50 µM; in test [3] (read-out: IC50 MDA-MB-231, MTT assay, 48 h, mean ± SD), 71 ± 10.3 µM; in test [4] (Homo sapiens, MCF7, 48 h, read-out: IC50 MCF-7, MTT assay, 48 h, mean ± SD), > 50 µM; in test [4] (read-out: IC50 MCF-7, MTT assay, 48 h, mean ± SD) it was 55 ± 2.3 µM. For the same molecule, the IC50 in test [6] (Leishmania infantum, read-out: IC50 Leishmania infantum, promastigotes, MTT assay, 48 h, mean ± SD) was < 5 µM; in test [6] (read-out: IC50 Leishmania infantum, promastigotes, MTT assay, mean ± SD), 3.3 ± 1.8 µM. The MBC in test [2] was 50 µg/mL (≈ 225 µM); in test [5], > 200 µg/mL. Also, the MIC in test [2] and in test [5] (24 h) was 50 µg/mL (≈ 225 µM) in each case. Besides, the “MBC S. faecalis” value in test [5] (Gram-positive) is reported as “no bactericidal effect was observed”.

For the molecule `N#C[Se]Cc1ccc2c(c1)OCO2` [Compound 2a, 5-(Selenocyanatomethyl)benzo[d][1,3]dioxole], the IC50 in test [1] (setting [7]) was < 5 µM; in test [1] (setting [8]) it was 3.3 ± 0.9 µM; in test [3] (setting [9]), 43.8 ± 5.7 µM; in test [4] (setting [10]), 59.3 ± 6.5 µM; in test [6] (setting [11]) it was < 5 µM; in test [6] (setting [12]), 3.7 ± 0.1 µM. In addition, the “MBC S. aureus” value in test [2] is on record as “could not be obtained”. Besides, the “MIC S. aureus” value in test [2] was ≤ 25 µg/mL. Further, the MBC in test [2] and in test [5] (Gram-positive) was > 200 µg/mL each time. Also, the MIC was found to be 25 µg/mL (≈ 104 µM) in test [2] and 25 µg/mL (≈ 104 µM) in test [5] (Gram-positive, 24 h at 37 °C). Further, the “MBC S. faecalis” value in test [5] (Gram-positive) is on record as “no bactericidal effect was observed”. In addition, the “MIC S. faecalis” value in test [5] (Gram-positive, 24 h at 37 °C) is ≤ 25 µg/mL.

Regarding `O=C(CC[Se]CC=Cc1ccccc1)[c-]1cccc1.[Fe+2].c1cc[cH-]c1` [Compound 1c, 3-(Cinnamylselanyl)-1-ferrocenylpropan-1-one], the IC50 in test [1] (setting [8]) was 25.8 ± 2.7 µM; in test [3] (setting [13]) it was 32.1 ± 3 µM; in test [4] (setting [14]), 18.5 ± 5.4 µM; in test [6] (setting [12]) it was 23.2 ± 10.7 µM. Further, the “MIC S. aureus” value in test [2] was >200 µg/mL. For the same molecule, the “MIC S. faecalis” value in test [5] (Gram-positive, 24 h at 37 °C) is >200 µg/mL.

With `C(=C\c1ccccc1)/C[Se][Se]C/C=C/c1ccccc1` [Compound 1b, 1,2-Dicinnamyldiselenide], the IC50 in test [1] (setting [7]) was 47.6 ± 16 µM; in test [3] (setting [9]) it was 56.3 ± 5.3 µM; in test [4] (setting [10]), > 100 µM; in test [6] (setting [11]), 39.4 ± 5.1 µM. The MIC in test [2] is > 200 µg/mL; in test [5] (Gram-positive, 24 h at 37 °C), > 200 µg/mL.

In the case of `O=C(CC[Se]Cc1ccc2c(c1)OCO2)[c-]1cccc1.[Fe+2].c1cc[cH-]c1` [Compound 2c, 3-((Benzo[d][1,3]dioxol-5-ylmethyl)selanyl)-1-ferrocenylpropan-1-one], the IC50 in test [1] (setting [8]) is 11.2 ± 3 µM; in test [3] (setting [13]), 30.9 ± 1.3 µM; in test [4] (setting [14]) it was 14.8 ± 4.3 µM; in test [6] (setting [12]), 7.2 ± 3.6 µM. Also, the “MIC S. aureus” value in test [2] was >200 µg/mL. Further, in test [5] (Gram-positive, 24 h at 37 °C), the “MIC S. faecalis” value was >200 µg/mL.
